Consider 33 compounds from ChEMBL document CHEMBL1697731, “Cheminformatics analysis of assertions mined from literature that describe drug-induced liver injury in different species” (Chem Res Toxicol, 2010).

Data set [1] has as its system Hepatotoxicity. Briefly: Literature-mined compound from Fourches et al multi-species drug-induced liver injury (DILI) dataset, effect in humans. The conditions noted are these: human.
The test system of data set [2] is Hepatotoxicity. Kind of data set: Literature-mined compound from Fourches et al multi-species drug-induced liver injury (DILI) dataset, effect in rodents. The conditions noted are these: rodentia.
Data set [3] concerns Hepatotoxicity. Briefly: Literature-mined compound from Fourches et al multi-species drug-induced liver injury (DILI) dataset, effect in non-rodents.

`CC1Cc2ccccc2N1NC(=O)c1ccc(Cl)c(S(N)(=O)=O)c1` (centres undefined) [INDAPAMIDE]: the Hepatotoxicity entry in data set [1] is reported as “no drug-induced liver injury reported”; in data set [2], “drug-induced liver injury reported”; in data set [3], “no drug-induced liver injury reported”.
For the compound `CC1(C)C(/C=C/C=C/C=C/C=C2/N(CCCCS(=O)(=O)[O-])c3ccc4ccccc4c3C2(C)C)=[N+](CCCCS(=O)(=O)[O-])c2ccc3ccccc3c21.[Na+]` [INDOCYANINE GREEN], the Hepatotoxicity result in data set [1] was “no drug-induced liver injury reported”; in data set [2], “drug-induced liver injury reported”; in data set [3] it was “no drug-induced liver injury reported”.
Consider `COc1ccc2c(c1)c(CC(=O)O)c(C)n2C(=O)c1ccc(Cl)cc1` [INDOMETHACIN], for which the Hepatotoxicity entry in data set [1], in data set [2] and in data set [3] was “drug-induced liver injury reported” in each case.
`OC[C@H]1O[C@@H](n2cnc3c(O)ncnc32)[C@H](O)[C@@H]1O` [INOSINE]: the Hepatotoxicity result in data set [1] is recorded as “no drug-induced liver injury reported”; in data set [2], “drug-induced liver injury reported”; in data set [3], “no drug-induced liver injury reported”.
Regarding `O[C@H]1[C@H](O)[C@@H](O)[C@H](O)[C@@H](O)[C@H]1O` [INOSITOL], the Hepatotoxicity entry in data set [1] is “drug-induced liver injury reported”; in data set [2] it was “no drug-induced liver injury reported”; in data set [3], “no drug-induced liver injury reported”.
Turning to `Cc1cnc(NCCCN(C)C)c2c1[nH]c1ccc3cc(O)ccc3c12` [INTOPLICINE], the values for the Hepatotoxicity result in data set [1], in data set [2] and in data set [3] were “drug-induced liver injury reported”, “no drug-induced liver injury reported” and “no drug-induced liver injury reported”, respectively.
As to `O=C(CCCCC(=O)Nc1c(I)cc(I)c(C(=O)O)c1I)Nc1c(I)cc(I)c(C(=O)O)c1I` [IODIPAMIDE], the Hepatotoxicity result in data set [1] is “no drug-induced liver injury reported”; in data set [2], “drug-induced liver injury reported”; in data set [3], “drug-induced liver injury reported”.
Turning to `CC(=O)N(CC(O)CO)c1c(I)c(C(=O)NCC(O)CO)c(I)c(C(=O)NCC(O)CO)c1I` (centres undefined) [IOHEXOL], the Hepatotoxicity entry is “no drug-induced liver injury reported” in data set [1], “no drug-induced liver injury reported” in data set [2] and “drug-induced liver injury reported” in data set [3].
As for `CC(C)NNC(=O)COc1ccc(Cl)cc1` [IPROCLOZIDE], the Hepatotoxicity result in data set [1] is recorded as “drug-induced liver injury reported”; in data set [2] it was “no drug-induced liver injury reported”; in data set [3] it was “no drug-induced liver injury reported”.
Turning to `CC(C)NNC(=O)c1ccncc1` [IPRONIAZID], the Hepatotoxicity entry in data set [1] is reported as “drug-induced liver injury reported”; in data set [2], “drug-induced liver injury reported”; in data set [3], “no drug-induced liver injury reported”.
For the compound `CCCCC1=NC2(CCCC2)C(=O)N1Cc1ccc(-c2ccccc2-c2nnn[nH]2)cc1` [IRBESARTAN], the Hepatotoxicity result in data set [1] was “drug-induced liver injury reported”; in data set [2], “drug-induced liver injury reported”; in data set [3], “no drug-induced liver injury reported”.
Consider `CCc1c2c(nc3ccc(OC(=O)N4CCC(N5CCCCC5)CC4)cc13)-c1cc3c(c(=O)n1C2)COC(=O)[C@]3(O)CC` [IRINOTECAN], for which the Hepatotoxicity entry in data set [1] is on record as “drug-induced liver injury reported”; in data set [2], “no drug-induced liver injury reported”; in data set [3], “no drug-induced liver injury reported”.
As for `CC(C)Nc1ncccn1.O=P(O)(O)O` [ISAXONINE PHOSPHATE], the Hepatotoxicity result in data set [1] is given as “drug-induced liver injury reported”; in data set [2] it was “no drug-induced liver injury reported”; in data set [3], “no drug-induced liver injury reported”.
`O=c1c(-c2ccccc2)coc2ccccc12` [ISOFLAVONE]: the Hepatotoxicity entry is given as “no drug-induced liver injury reported” in data set [1], “no drug-induced liver injury reported” in data set [2] and “drug-induced liver injury reported” in data set [3].
Consider `FC(F)OC(Cl)C(F)(F)F` (centres undefined) [ISOFLURANE], for which the Hepatotoxicity result in data set [1], in data set [2] and in data set [3] was “drug-induced liver injury reported” throughout.
`NNC(=O)c1ccncc1` [ISONIAZID]: the Hepatotoxicity entry in data set [1], in data set [2] and in data set [3] was “drug-induced liver injury reported” in each case.
Take `CC(C)O` [ISOPROPYL ALCOHOL]: the Hepatotoxicity entry is recorded as “no drug-induced liver injury reported” in data set [1], “drug-induced liver injury reported” in data set [2] and “no drug-induced liver injury reported” in data set [3].
Regarding `CC(C)NCC(O)c1ccc(O)c(O)c1` (centres undefined) [ISOPROTERENOL], the Hepatotoxicity result in data set [1] (Liver), in data set [2] (Liver) and in data set [3] (Liver) was “drug-induced liver injury reported” in each case.
Take `O=[N+]([O-])O[C@H]1CO[C@H]2[C@@H]1OC[C@H]2O[N+](=O)[O-]` [ISOSORBIDE DINITRATE]: the Hepatotoxicity result in data set [1] is listed as “drug-induced liver injury reported”; in data set [2], “drug-induced liver injury reported”; in data set [3] it was “no drug-induced liver injury reported”.
With `O=[N+]([O-])O[C@@H]1CO[C@H]2[C@@H]1OC[C@@H]2O` [ISOSORBIDE MONONITRATE], the Hepatotoxicity entry in data set [1] is listed as “drug-induced liver injury reported”; in data set [2], “no drug-induced liver injury reported”; in data set [3], “no drug-induced liver injury reported”.
As for `CC1=C(/C=C/C(C)=C/C=C/C(C)=C\C(=O)O)C(C)(C)CCC1` [ISOTRETINOIN], the results for the Hepatotoxicity entry in data set [1], in data set [2] and in data set [3] were “drug-induced liver injury reported”, “no drug-induced liver injury reported” and “no drug-induced liver injury reported”, respectively.
In the case of `CC(COc1ccccc1)NC(C)C(O)c1ccc(O)cc1` (centres undefined) [ISOXSUPRINE], the results for the Hepatotoxicity result in data set [1], in data set [2] and in data set [3] were “no drug-induced liver injury reported”, “drug-induced liver injury reported” and “no drug-induced liver injury reported”, respectively.
For the compound `COC(=O)C1=C(C)NC(C)=C(C(=O)OC(C)C)C1c1cccc2nonc12` (centres undefined) [ISRADIPINE], the results for the Hepatotoxicity result in data set [1], in data set [2] and in data set [3] were “drug-induced liver injury reported”, “no drug-induced liver injury reported” and “no drug-induced liver injury reported”, respectively.
For `CCC(C)n1ncn(-c2ccc(N3CCN(c4ccc(OCC5COC(Cn6cncn6)(c6ccc(Cl)cc6Cl)O5)cc4)CC3)cc2)c1=O` (centres undefined) [ITRACONAZOLE], the Hepatotoxicity result is reported as “drug-induced liver injury reported” in data set [1], “drug-induced liver injury reported” in data set [2] and “no drug-induced liver injury reported” in data set [3].
`C/C(=C\c1csc(C)n1)[C@@H]1C[C@@H]2O[C@]2(C)CCC[C@H](C)[C@H](O)[C@@H](C)C(=O)C(C)(C)[C@@H](O)CC(=O)N1` [IXABEPILONE]: the Hepatotoxicity result in data set [1] is “drug-induced liver injury reported”; in data set [2], “no drug-induced liver injury reported”; in data set [3], “no drug-induced liver injury reported”.
On to `CNC1(c2ccccc2Cl)CCCCC1=O` (centres undefined) [KETAMINE], for which the Hepatotoxicity entry was “no drug-induced liver injury reported” in data set [1], “drug-induced liver injury reported” in data set [2] and “drug-induced liver injury reported” in data set [3].
For `O=C(c1ccc(F)cc1)C1CCN(CCn2c(=O)[nH]c3ccccc3c2=O)CC1` [KETANSERIN], the Hepatotoxicity entry in data set [1] is reported as “drug-induced liver injury reported”; in data set [2], “drug-induced liver injury reported”; in data set [3] it was “no drug-induced liver injury reported”.
Take `CC(=O)N1CCN(c2ccc(OCC3COC(Cn4ccnc4)(c4ccc(Cl)cc4Cl)O3)cc2)CC1` (centres undefined) [KETOCONAZOLE]: the Hepatotoxicity result in data set [1], in data set [2] and in data set [3] was “drug-induced liver injury reported” in each case.
Regarding `CC(C(=O)O)c1cccc(C(=O)c2ccccc2)c1` (centres undefined) [KETOPROFEN], the values for the Hepatotoxicity result in data set [1], in data set [2] and in data set [3] were “drug-induced liver injury reported”, “no drug-induced liver injury reported” and “no drug-induced liver injury reported”, respectively.
Take `COc1c2occc2c(OC)c2c(=O)cc(C)oc12` [KHELLIN]: the Hepatotoxicity entry in data set [1] is recorded as “no drug-induced liver injury reported”; in data set [2], “drug-induced liver injury reported”; in data set [3], “no drug-induced liver injury reported”.
Consider `CC(CCc1ccccc1)NCC(O)c1ccc(O)c(C(N)=O)c1` (centres undefined) [LABETALOL], for which the Hepatotoxicity result in data set [1] is on record as “drug-induced liver injury reported”; in data set [2] it was “no drug-induced liver injury reported”; in data set [3] it was “no drug-induced liver injury reported”.
In the case of `CC(O)C(=O)O` (centres undefined) [LACTIC ACID], the Hepatotoxicity result in data set [1], in data set [2] and in data set [3] was “drug-induced liver injury reported” throughout.
Take `OC[C@H]1O[C@@H](O[C@@H]2[C@@H](CO)O[C@](O)(CO)[C@H]2O)[C@H](O)[C@@H](O)[C@H]1O` [LACTULOSE]: the figures for the Hepatotoxicity result in data set [1], in data set [2] and in data set [3] were “drug-induced liver injury reported”, “drug-induced liver injury reported” and “no drug-induced liver injury reported”, respectively.
